Earlier results on 1 compound are cited in patent US20140018438A1, “METHOD OF DESTROYING BACTERIAL BIOFILM USING STERILE INTRAVENOUS OR INTRACAVERNOUS GLYCERIN” (priority 2012, published 2014).

For this data set the following is noted: sterile product for intravenous administration, generally 3% concentration at 80-100 milliliters per hour.

Molecules are shown by their SMILES.

As for `OCC(O)CO` [Glycerin], the “allergic reactions / safety profile” value was “free of allergic reactions”.
